Data taken from patent publication US20100099561A1, “HETEROBICYCLIC ALKYLTHIO-BRIDGED ISOXAZOLINES” (E.I. DU PONT DE NEMOURS AND COMPANY, priority 2008, published 2010).

How the values were obtained:
Format in all cases: in vivo
[1] = tested on: barnyardgrass (Echinochloa crus-galli); test: Test A preemergence, barnyardgrass; conditions: 0 to 100 scale (0 no effect, 100 complete control)
Text: (§1) Seeds of barnyardgrass (Echinochloa crus-galli), large crabgrass (Digitaria sanguinalis), giant foxtail (Setaria faberi), morningglory (Ipomoea spp.), pigweed (Amaranthus retroflexus), velvetleaf (Abutilon theophrasti), wheat (Triticum aestivum), and corn (Zea mays) were planted into a blend of loam soil and sand and treated preemergence with a directed soil spray using test chemicals formulated in a non-phytotoxic solvent mixture which included a surfactant. At the same time these species were also treated with postemergence applications of test compounds formulated in the same manner. Plants ranged in height from two to ten cm and were in the one- to two-leaf stage for the postemergence treatment. Treated plants and untreated controls were maintained in a greenhouse for approximately ten days, after which time all treated plants were compared to untreated controls and visually evaluated for injury. Plant response ratings, summarized in Table A, are based on a 0 to 100 scale where 0 is no effect and 100 is complete control. A dash (-) response means no test result.

[2] = tested on: large crabgrass (Digitaria sanguinalis); test: Test A preemergence, large crabgrass; conditions: 0 to 100 scale (0 no effect, 100 complete control)
Text: as §1

[3] = tested on: giant foxtail (Setaria faberi); test: Test A preemergence, giant foxtail; conditions: 0 to 100 scale (0 no effect, 100 complete control)
Text: as §1

[4] = tested on: morningglory (Ipomoea spp.); test: Test A preemergence, morningglory; conditions: 0 to 100 scale (0 no effect, 100 complete control)
Text: as §1

[5] = tested on: pigweed (Amaranthus retroflexus); test: Test A preemergence, pigweed; conditions: 0 to 100 scale (0 no effect, 100 complete control)
Text: as §1

[6] = tested on: velvetleaf (Abutilon theophrasti); test: Test A preemergence, velvetleaf; conditions: 0 to 100 scale (0 no effect, 100 complete control)
Text: as §1

[7] = tested on: wheat (Triticum aestivum); test: Test A preemergence, wheat; conditions: 0 to 100 scale (0 no effect, 100 complete control)
Text: as §1

[8] = tested on: corn (Zea mays); test: Test A preemergence, corn; conditions: 0 to 100 scale (0 no effect, 100 complete control)
Text: as §1

[9] = tested on: barnyardgrass (Echinochloa crus-galli); test: Test A postemergence, barnyardgrass; conditions: 0 to 100 scale (0 no effect, 100 complete control)
Text: as §1

[10] = tested on: large crabgrass (Digitaria sanguinalis); test: Test A postemergence, large crabgrass; conditions: 0 to 100 scale (0 no effect, 100 complete control)
Text: as §1

[11] = tested on: giant foxtail (Setaria faberi); test: Test A postemergence, giant foxtail; conditions: 0 to 100 scale (0 no effect, 100 complete control)
Text: as §1

[12] = tested on: morningglory (Ipomoea spp.); test: Test A postemergence, morningglory; conditions: 0 to 100 scale (0 no effect, 100 complete control)
Text: as §1

[13] = tested on: pigweed (Amaranthus retroflexus); test: Test A postemergence, pigweed; conditions: 0 to 100 scale (0 no effect, 100 complete control)
Text: as §1

[14] = tested on: velvetleaf (Abutilon theophrasti); test: Test A postemergence, velvetleaf; conditions: 0 to 100 scale (0 no effect, 100 complete control)
Text: as §1

[15] = tested on: wheat (Triticum aestivum); test: Test A postemergence, wheat; conditions: 0 to 100 scale (0 no effect, 100 complete control)
Text: as §1

[16] = tested on: corn (Zea mays); test: Test A postemergence, corn; conditions: 0 to 100 scale (0 no effect, 100 complete control)
Text: as §1

[17] = tested on: rice (Oryza sativa); test: Test B flooded paddy test, rice; conditions: Flood, scale 0 to 100
Text: (§2) Plant species in the flooded paddy test consisted of rice (Oryza sativa), umbrella sedge (Cyperus difformis), ducksalad (Heteranthera limosa) and barnyardgrass (Echinochloa crus-galli) grown to the 2-leaf stage for testing. At time of treatment, test pots were flooded to 3 cm above the soil surface, treated by application of test compounds directly to the paddy water, and then maintained at that water depth for the duration of the test. Treated plants and controls were maintained in a greenhouse for 13 to 15 days, after which time all species were compared to controls and visually evaluated. Plant response ratings, summarized in Table B, are based on a scale of 0 to 100 where 0 is no effect and 100 is complete control. A dash (-) response means no test result.

[18] = tested on: umbrella sedge (Cyperus difformis); test: Test B flooded paddy test, umbrella sedge; conditions: Flood, scale 0 to 100
Text: as §2

[19] = tested on: ducksalad (Heteranthera limosa); test: Test B flooded paddy test, ducksalad; conditions: Flood, scale 0 to 100
Text: as §2

[20] = tested on: barnyardgrass (Echinochloa crus-galli); test: Test B flooded paddy test, barnyardgrass; conditions: Flood
Text: as §2

[21] = 250 g ai/ha, scale 0 to 100 (0 no effect, 100 complete control)

CC1(C)CC(S(=O)(=O)Cc2c(C(F)(F)F)nc3ccccn3c2=O)=NO1 [Compound 7]
0: Plant response rating, Morningglory ([4]; 125 g ai/ha) | Plant response rating, Morningglory ([4]; 500 g ai/ha) | Plant response rating, Pigweed ([5]; 125 g ai/ha) | Plant response rating, Pigweed ([5]; 500 g ai/ha) | Plant response rating, Velvetleaf ([6]; 125 g ai/ha) | Plant response rating, Velvetleaf ([6]; 500 g ai/ha) | Plant response rating, Wheat ([7]; 125 g ai/ha) | Plant response rating, Corn ([8]; 125 g ai/ha) | Plant response rating, Corn ([8]; 500 g ai/ha) | Plant response rating, Morningglory ([12]; 125 g ai/ha) | Plant response rating, Morningglory ([12]; 500 g ai/ha) | Plant response rating, Pigweed ([13]; 125 g ai/ha) | Plant response rating, Pigweed ([13]; 500 g ai/ha) | Plant response rating, Velvetleaf ([14]; 125 g ai/ha) | Plant response rating, Wheat ([15]; 125 g ai/ha) | Plant response rating, Wheat ([15]; 500 g ai/ha) | Plant response rating, Corn ([16]; 125 g ai/ha) | Plant response rating, Corn ([16]; 500 g ai/ha) | Plant response rating, Rice ([17]; 62 g ai/ha) | Plant response rating, Rice ([17]; 250 g ai/ha) | Plant response rating, Sedge, Umbrella ([18]; 62 g ai/ha) | Plant response rating, Sedge, Umbrella ([18]; 250 g ai/ha) | Plant response rating, Ducksalad ([19]; 62 g ai/ha) | Plant response rating, Ducksalad ([19]; 250 g ai/ha) | Plant response rating, Barnyardgrass ([20]; 62 g ai/ha, scale 0 to 100) | Plant response rating, Barnyardgrass [20, 21]
40: Plant response rating, Crabgrass, Large ([10]; 125 g ai/ha)
80: Plant response rating, Crabgrass, Large ([2]; 500 g ai/ha) | Plant response rating, Foxtail, Giant ([3]; 125 g ai/ha) | Plant response rating, Barnyardgrass ([9]; 125 g ai/ha) | Plant response rating, Barnyardgrass ([9]; 500 g ai/ha) | Plant response rating, Crabgrass, Large ([10]; 500 g ai/ha) | Plant response rating, Foxtail, Giant ([11]; 500 g ai/ha)
60: Plant response rating, Barnyardgrass ([1]; 125 g ai/ha) | Plant response rating, Crabgrass, Large ([2]; 125 g ai/ha) | Plant response rating, Foxtail, Giant ([11]; 125 g ai/ha)
10: Plant response rating, Wheat ([7]; 500 g ai/ha)
90: Plant response rating, Barnyardgrass ([1]; 500 g ai/ha) | Plant response rating, Foxtail, Giant ([3]; 500 g ai/ha)
20: Plant response rating, Velvetleaf ([14]; 500 g ai/ha)

CC1(C)CC([S+]([O-])Cc2c(C(F)(F)F)nc3n(c2=O)CCC3)=NO1 (stereo not drawn) [Compound 10, 3-[[(4,5-dihydro-5,5-dimethyl-3-isoxazolyl)sulfinyl]methyl]-7,8-dihydro-2-(trifluoromethyl)pyrrolo[1,2-α]pyrimidin-4(6H)-one]
10: Plant response rating, Corn ([8]; 500 g ai/ha) | Plant response rating, Morningglory ([12]; 125 g ai/ha) | Plant response rating, Pigweed ([13]; 125 g ai/ha) | Plant response rating, Velvetleaf ([14]; 125 g ai/ha)
30: Plant response rating, Wheat ([7]; 500 g ai/ha) | Plant response rating, Barnyardgrass ([9]; 125 g ai/ha) | Plant response rating, Foxtail, Giant ([11]; 125 g ai/ha) | Plant response rating, Pigweed ([13]; 500 g ai/ha)
20: Plant response rating, Foxtail, Giant ([3]; 125 g ai/ha) | Plant response rating, Morningglory ([12]; 500 g ai/ha) | Plant response rating, Wheat ([15]; 500 g ai/ha) | Plant response rating, Corn ([16]; 500 g ai/ha)
80: Plant response rating, Crabgrass, Large ([2]; 500 g ai/ha) | Plant response rating, Foxtail, Giant ([3]; 500 g ai/ha) | Plant response rating, Barnyardgrass ([9]; 500 g ai/ha)
0: Plant response rating, Barnyardgrass ([1]; 125 g ai/ha) | Plant response rating, Crabgrass, Large ([2]; 125 g ai/ha) | Plant response rating, Morningglory ([4]; 125 g ai/ha) | Plant response rating, Morningglory ([4]; 500 g ai/ha) | Plant response rating, Pigweed ([5]; 125 g ai/ha) | Plant response rating, Pigweed ([5]; 500 g ai/ha) | Plant response rating, Velvetleaf ([6]; 125 g ai/ha) | Plant response rating, Velvetleaf ([6]; 500 g ai/ha) | Plant response rating, Wheat ([7]; 125 g ai/ha) | Plant response rating, Corn ([8]; 125 g ai/ha) | Plant response rating, Wheat ([15]; 125 g ai/ha) | Plant response rating, Corn ([16]; 125 g ai/ha) | Plant response rating, Rice ([17]; 31 g ai/ha) | Plant response rating, Rice ([17]; 62 g ai/ha) | Plant response rating, Rice ([17]; 125 g ai/ha) | Plant response rating, Rice ([17]; 250 g ai/ha) | Plant response rating, Sedge, Umbrella ([18]; 31 g ai/ha) | Plant response rating, Sedge, Umbrella ([18]; 62 g ai/ha) | Plant response rating, Sedge, Umbrella ([18]; 125 g ai/ha) | Plant response rating, Sedge, Umbrella ([18]; 250 g ai/ha) | Plant response rating, Ducksalad ([19]; 31 g ai/ha) | Plant response rating, Ducksalad ([19]; 62 g ai/ha) | Plant response rating, Ducksalad ([19]; 125 g ai/ha) | Plant response rating, Ducksalad ([19]; 250 g ai/ha) | Plant response rating, Barnyardgrass ([20]; 31 g ai/ha, scale 0 to 100) | Plant response rating, Barnyardgrass ([20]; 62 g ai/ha, scale 0 to 100) | Plant response rating, Barnyardgrass ([20]; 125 g ai/ha, scale 0 to 100) | Plant response rating, Barnyardgrass [20, 21]
40: Plant response rating, Crabgrass, Large ([10]; 125 g ai/ha) | Plant response rating, Velvetleaf ([14]; 500 g ai/ha)
70: Plant response rating, Barnyardgrass ([1]; 500 g ai/ha) | Plant response rating, Crabgrass, Large ([10]; 500 g ai/ha) | Plant response rating, Foxtail, Giant ([11]; 500 g ai/ha)

CC1(C)CC([S+]([O-])Cc2c(C(F)(F)Cl)nc3n(c2=O)CCC3)=NO1 (stereo not shown) [Compound 17]
50: Plant response rating, Crabgrass, Large ([10]; 500 g ai/ha)
20: Plant response rating, Barnyardgrass ([1]; 125 g ai/ha) | Plant response rating, Crabgrass, Large ([10]; 125 g ai/ha) | Plant response rating, Wheat ([15]; 500 g ai/ha)
80: Plant response rating, Crabgrass, Large ([2]; 500 g ai/ha) | Plant response rating, Foxtail, Giant ([3]; 500 g ai/ha)
10: Plant response rating, Pigweed ([13]; 500 g ai/ha) | Plant response rating, Velvetleaf ([14]; 500 g ai/ha)
60: Plant response rating, Barnyardgrass ([1]; 500 g ai/ha) | Plant response rating, Barnyardgrass ([9]; 500 g ai/ha) | Plant response rating, Foxtail, Giant ([11]; 500 g ai/ha)
0: Plant response rating, Morningglory ([4]; 125 g ai/ha) | Plant response rating, Morningglory ([4]; 500 g ai/ha) | Plant response rating, Pigweed ([5]; 125 g ai/ha) | Plant response rating, Pigweed ([5]; 500 g ai/ha) | Plant response rating, Velvetleaf ([6]; 125 g ai/ha) | Plant response rating, Velvetleaf ([6]; 500 g ai/ha) | Plant response rating, Wheat ([7]; 125 g ai/ha) | Plant response rating, Wheat ([7]; 500 g ai/ha) | Plant response rating, Corn ([8]; 125 g ai/ha) | Plant response rating, Corn ([8]; 500 g ai/ha) | Plant response rating, Barnyardgrass ([9]; 125 g ai/ha) | Plant response rating, Morningglory ([12]; 125 g ai/ha) | Plant response rating, Morningglory ([12]; 500 g ai/ha) | Plant response rating, Pigweed ([13]; 125 g ai/ha) | Plant response rating, Velvetleaf ([14]; 125 g ai/ha) | Plant response rating, Wheat ([15]; 125 g ai/ha) | Plant response rating, Corn ([16]; 125 g ai/ha) | Plant response rating, Corn ([16]; 500 g ai/ha) | Plant response rating, Rice ([17]; 31 g ai/ha) | Plant response rating, Rice ([17]; 62 g ai/ha) | Plant response rating, Rice ([17]; 125 g ai/ha) | Plant response rating, Rice ([17]; 250 g ai/ha) | Plant response rating, Sedge, Umbrella ([18]; 31 g ai/ha) | Plant response rating, Sedge, Umbrella ([18]; 62 g ai/ha) | Plant response rating, Sedge, Umbrella ([18]; 125 g ai/ha) | Plant response rating, Sedge, Umbrella ([18]; 250 g ai/ha) | Plant response rating, Ducksalad ([19]; 31 g ai/ha) | Plant response rating, Ducksalad ([19]; 62 g ai/ha) | Plant response rating, Ducksalad ([19]; 125 g ai/ha) | Plant response rating, Ducksalad ([19]; 250 g ai/ha) | Plant response rating, Barnyardgrass ([20]; 31 g ai/ha, scale 0 to 100) | Plant response rating, Barnyardgrass ([20]; 62 g ai/ha, scale 0 to 100) | Plant response rating, Barnyardgrass ([20]; 125 g ai/ha, scale 0 to 100) | Plant response rating, Barnyardgrass [20, 21]
30: Plant response rating, Foxtail, Giant ([3]; 125 g ai/ha) | Plant response rating, Foxtail, Giant ([11]; 125 g ai/ha)
40: Plant response rating, Crabgrass, Large ([2]; 125 g ai/ha)
